Laboratory results from patent US10238670B2, “9-aminomethyl minocycline compounds and methods of use thereof in urinary tract infection (UTI) treatment” (Paratek Pharmaceuticals, Inc., priority 2016, dated 2019).
Values after ≈ are worked out from the molar mass of the structure shown.

Columns and labels:
Assay in all cases: In vitro MIC, 2010 surveillance isolates
MR CoNS = assay type: cell-based, Coagulase-Negative Staphylococcus
MRSA = assay type: cell-based
E. faecalis VNS = assay type: cell-based
E. faecium VS = assay type: cell-based
MSSA = assay type: cell-based
E. faecium VNS = assay type: cell-based
MS CoNS = assay type: cell-based, Coagulase-Negative Staphylococcus
E. faecalis VS = assay type: cell-based

Structure (SMILES): CN[C@H](CC(C)C)C(=O)N[C@H]1C(=O)N[C@@H](CC(N)=O)C(=O)N[C@H]2C(=O)N[C@H]3C(=O)N[C@H](C(=O)N[C@H](C(=O)O)c4cc(O)cc(O)c4-c4cc3ccc4O)[C@H](O)c3ccc(c(Cl)c3)Oc3cc2cc(c3O[C@@H]2O[C@H](CO)[C@@H](O)[C@H](O)[C@H]2O[C@H]2C[C@](C)(N)[C@H](O)[C@H](C)O2)Oc2ccc(cc2Cl)[C@H]1O [Vancomycin]
- % R (resistance) (MR CoNS; Asia/Pac, Eucast breakpoints): 1.3%
- MIC90 (MR CoNS; Asia/Pac, N=77): 2 µg/mL (≈ 1.38 µM)
- % R (resistance) (MR CoNS; Europe, Eucast breakpoints): 0.4%
- MIC90 (MR CoNS; Europe, N=510): 2 µg/mL (≈ 1.38 µM)
- % R (resistance) (MR CoNS; L. Amer, CLSI breakpoints): 0%
- MIC90 (MR CoNS; L. Amer, N=301): 2 µg/mL (≈ 1.38 µM)
- % R (resistance) (MR CoNS; N America, CLSI breakpoints): 0%
- MIC90 (MR CoNS; N America, N=461): 2 µg/mL (≈ 1.38 µM)
- % R (resistance) (MRSA; Asia/Pac, Eucast breakpoints): 0%
- MIC90 (MRSA; Asia/Pac, N=428): 1 µg/mL (≈ 0.69 µM)
- % R (resistance) (MRSA; Europe, Eucast breakpoints): 0%
- MIC90 (MRSA; Europe, N=750): 1 µg/mL (≈ 0.69 µM)
- % R (resistance) (MRSA; L. Amer, CLSI breakpoints): 0%
- MIC90 (MRSA; L. Amer, N=506): 1 µg/mL (≈ 0.69 µM)
- % R (resistance) (MRSA; N America, CLSI breakpoints): 0%
- MIC90 (MRSA; N America, N=2508): 1 µg/mL (≈ 0.69 µM)
- range of MICs (N <10, shown instead of MIC90) (E. faecalis VNS; Asia/Pac, N=1): >16
- % R (resistance) (E. faecalis VNS; Europe, Eucast breakpoints): 100%
- range of MICs (N <10, shown instead of MIC90) (E. faecalis VNS; Europe, N=8): > 16
- % R (resistance) (E. faecalis VNS; L. Amer, CLSI breakpoints): 100%
- range of MICs (N <10, shown instead of MIC90) (E. faecalis VNS; L. Amer, N=7): > 16
- % R (resistance) (E. faecalis VNS; N America, CLSI breakpoints): 92.1%
- MIC90 (E. faecalis VNS; N America, N=38): > 16 µg/mL
- % R (resistance) (E. faecium VS; Asia/Pac, Eucast breakpoints): 0%
- MIC90 (E. faecium VS; Asia/Pac, N=106): 1 µg/mL (≈ 0.69 µM)
- % R (resistance) (E. faecium VS; Europe, Eucast breakpoints): 0%
- MIC90 (E. faecium VS; Europe, N=303): 1 µg/mL (≈ 0.69 µM)
- % R (resistance) (E. faecium VS; L. Amer, CLSI breakpoints): 0%
- MIC90 (E. faecium VS; L. Amer, N=51): 1 µg/mL (≈ 0.69 µM)
- % R (resistance) (E. faecium VS; N America, CLSI breakpoints): 0%
- MIC90 (E. faecium VS; N America, N=115): 1 µg/mL (≈ 0.69 µM)
- % R (resistance) (MSSA; Asia/Pac, Eucast breakpoints): 0%
- MIC90 (MSSA; Asia/Pac, N=641): 1 µg/mL (≈ 0.69 µM)
- % R (resistance) (MSSA; Europe, Eucast breakpoints): 0%
- MIC90 (MSSA; Europe, N=2109): 1 µg/mL (≈ 0.69 µM)
- % R (resistance) (MSSA; L. Amer, CLSI breakpoints): 0%
- MIC90 (MSSA; L. Amer, N=590): 1 µg/mL (≈ 0.69 µM)
- % R (resistance) (MSSA; N America, CLSI breakpoints): 0%
- MIC90 (MSSA; N America, N=2373): 1 µg/mL (≈ 0.69 µM)
- % R (resistance) (E. faecium VNS; Asia/Pac, Eucast breakpoints): 100%
- MIC90 (E. faecium VNS; Asia/Pac, N=24): > 16 µg/mL
- % R (resistance) (E. faecium VNS; Europe, Eucast breakpoints): 100%
- MIC90 (E. faecium VNS; Europe, N=71): > 16 µg/mL
- % R (resistance) (E. faecium VNS; L. Amer, CLSI breakpoints): 100%
- MIC90 (E. faecium VNS; L. Amer, N=41): > 16 µg/mL
- % R (resistance) (E. faecium VNS; N America, CLSI breakpoints): 99.4%
- MIC90 (E. faecium VNS; N America, N=478): > 16 µg/mL
- % R (resistance) (MS CoNS; Asia/Pac, Eucast breakpoints): 0%
- MIC90 (MS CoNS; Asia/Pac, N=18): 2 µg/mL (≈ 1.38 µM)
- % R (resistance) (MS CoNS; Europe, Eucast breakpoints): 1.1%
- MIC90 (MS CoNS; Europe, N=185): 2 µg/mL (≈ 1.38 µM)
- % R (resistance) (MS CoNS; L. Amer, CLSI breakpoints): 0%
- MIC90 (MS CoNS; L. Amer, N=67): 2 µg/mL (≈ 1.38 µM)
- % R (resistance) (MS CoNS; N America, CLSI breakpoints): 0%
- MIC90 (MS CoNS; N America, N=191): 2 µg/mL (≈ 1.38 µM)
- % R (resistance) (E. faecalis VS; Asia/Pac, Eucast breakpoints): 0%
- MIC90 (E. faecalis VS; Asia/Pac, N=214): 2 µg/mL (≈ 1.38 µM)
- % R (resistance) (E. faecalis VS; Europe, Eucast breakpoints): 0%
- MIC90 (E. faecalis VS; Europe, N=669): 2 µg/mL (≈ 1.38 µM)
- % R (resistance) (E. faecalis VS; L. Amer, CLSI breakpoints): 0%
- MIC90 (E. faecalis VS; L. Amer, N=290): 2 µg/mL (≈ 1.38 µM)
- % R (resistance) (E. faecalis VS; N America, CLSI breakpoints): 0%
- MIC90 (E. faecalis VS; N America, N=863): 2 µg/mL (≈ 1.38 µM)
